# Laboratory results published in US11435345B2, “Detection and treatment of demyelinating diseases” (MATN SCIENTIFIC LIMITED, priority 2016, dated 2022).
# Entries after “also recorded” stand apart in the source; their conditions may differ. No end group written: not given here.
# Columns and labels:
# [1] = tested on: multiple sclerosis patients; details: MS patients; cited from earlier work
# [2] = tested on: antibody that binds to the oligopeptide in serum samples; assay: ELISA assay of serum antibody that binds to biotinylated oligopeptides immobilised on streptavidin plates; format: binding, human; details: pH 7.4, female subjects, FIG. 2
# Source text: Six exemplary oligopeptides of the invention (each 17 amino-acids long, with biotinylated N-terminus) were used to prepare ELISA assays for studying antibody levels in patient samples. The oligopeptides were synthesised by K J Ross-Petersen ApS (Copenhagen, Denmark) and provided in lyophilized form. General serum diluent was purchased from Immunochemistry Technologies LLC (Minnesota, USA). Streptavidin coated 96-Well microplates were purchased from Eagle Biosciences (New Hampshire, USA) and the oligopeptides were applied to individual wells of the streptavidin plates as described below.
# Sample preparation: Following obtaining informed consent, a 5 ml venous blood sample was withdrawn from each individual participating in this study. Samples were centrifuged for 10 minutes at 3000 RPM. Serum was then transferred into a clean plastic vial and the remainder was discarded. Serum was then diluted in general serum diluent (200 μl/mL), labelled accordingly and stored at −20° C. […]
# ELISA protocol: Typical ELISA protocol was followed for quantifying antibodies present in serum. […] The plate was shaken for 5 seconds at 250 RPM and absorbance was measured using plate reader at wavelength 450 nm and 630 nm filter. Elisys Uno fully automated ELISA analyser (HUMAN company, Wiesbaden, Germany) was used to read the measurements. […]
# chicks = assay: MS induction in chicks with antigens combined with pertussis and adjuvant; format: in vivo, chick; details: 1 mg antigen per 70 g body weight
# Description: As a preliminary examination of our proposed treatment method, we induced MS in chicks by injecting antigens P, F, E and A (corresponding to SEQ ID NOs: 20, 21, 22 and 23) combined with pertussis and adjuvant. The dosage was 1 mg antigen per 70 g body weight. The main reason we chose this animal was to be able to easily visualize the walking impairment as they are bipedal like humans (compared to quadrupedal rodents). Initial symptoms were seen 12 days after antigen injection.
# C57BL/6 mice [3] = assay: Disease induction with antigen and adjuvant in combination with Pertussis toxin; format: in vivo, mouse; details: for severity of muscle weakness compared between antigens / grade of plaques compared to control animals: mice; for grade of plaques compared to control animals: mid brain section, antigen + adjuvant + pertussis, FIG. 8
# Description: (§1) Male (n=16) and female (n=16) C57BL/6 mice, weighing between 16-18 g, were purchased from Royan institute (Tehran, Iran). MS induction study started when mice reached 6-8 weeks of age. Similar investigations were carried chick and guinea pig (data not shown). All procedures were performed aseptically and under supervision of Gandhi Hospital medical ethics committee (Tehran, Iran). Freund's complete adjuvant and Pertussis toxin purchased from Sigma-Aldrich (Dorset, UK).
# At day 1 and day 2, 250 μg of antigen (oligopeptides of the invention) diluted in 150 μl of saline combined with 150 μl of adjuvant was injected intra-dermally into alcohol wiped back of each mouse. Following the injection of antigens, 400 ng Pertussis toxin diluted in 300 μl distilled water was injected intraperitoneally. Two control groups received either 150 μl distilled water in 150 μl of adjuvant or 400 ng Pertussis toxin diluted in 300 μl distilled water. The animals were kept in standard housing condition with appropriate temperature and humidity as well as adequate supplies of food and fresh water.
# (§2) After scarifying mice by anaesthesia overdose at day 15 of injection, their brain was dissected out and fixed in 10% Formalin for histological analysis. The fixed samples were subsequently cut horizontally and processed to produce 5-micron thin paraffin sections, which then were stained with Haematoxylin and eosin (H&E), Glial fibrillary acidic protein (GFAP), CD-68 and Luxol fast blue (LFB). Various sections of the brain were then analyzed and imaged using a bright-field microscope (Optika B-383PL, Bergamo, Italy). Grade of plaque formation was defined as number of plaques measured in mid brain section as follow: […]
# The effect of injected oligopeptide antigens of the invention on muscular function was tested by measuring animal fall time from inverted cage and ring. These tests follow the format of commonly used functional muscle evaluation tests in mice that use “wire hanging” behavioral tests wherein latency to fall after being suspended from a substrate is quantified to give a measure of muscular function.
# C57BL/6 mice [4] = assay: Disease induction with antigen and adjuvant without Pertussis toxin; format: in vivo, mouse; details: for grade of plaque formation: mid brain section, day 15, without Pertussis, FIG. 12
# Description: as §1
# C57BL/6 mice were injected with adjuvant and antigens (oligopeptides of the invention) at day 0 and 5. Control group received the injection of only adjuvant in distilled water.
# as §2
# [5] = fall from inverted cage and ring
Substance,balance compared to controls (chicks),time to initial symptoms after antigen injection (chicks) [days],weight compared to controls (chicks),grade of plaques compared to control animals (C57BL/6 mice [3]),other results
Glatiramer acetate [Copaxone],,,,,fewer relapses than patients taking placebo [1]: about 30%
"MPRTQENAHSLERCWL [antigen H, MPRTQENAHSLERCWL]",,,,,differences between healthy female patients (HF) and female patients with MS (FMS) in the levels of antibody that bind to the oligopeptide [2]: significant for each exemplary oligopeptide besides H and S
RDSANIYHADSLKGRFT (Oligopeptide motif) [antigen A],lack of balance,12,Significant weight loss,significantly higher,severity of muscle weakness compared between antigens (C57BL/6 mice [3]; [5]): less than those injected with oligopeptide antigen P; also recorded: considerably less effect than oligopeptide antigens E and F
RGSRGQHQAHSLERVCH (Oligopeptide motif) [antigen P],lack of balance,12,Significant weight loss,,severity of muscle weakness compared between antigens (C57BL/6 mice [3]; [5]): considerably less effect than oligopeptide antigens E and F
RHSDEHHHDDSLPHPQQ (Oligopeptide motif) [antigen E],lack of balance,12,Significant weight loss,significantly higher,"grade of plaque formation (C57BL/6 mice [4]; female mice): 9 (24-27); induction of MS in females (C57BL/6 mice [4]; females): major inducer of MS in females; muscle weakness in female mice (C57BL/6 mice [3]; female mice, fall from inverted cage and ring): most pronounced muscle weakness"
"RLTLSPEQAHSLILQHL [antigen S, RLTLSPEQAHSLILQHL]",,,,,differences between healthy female patients (HF) and female patients with MS (FMS) in the levels of antibody that bind to the oligopeptide [2]: significant for each exemplary oligopeptide besides H and S
RVPGCAHHADSLYTYPV (Oligopeptide motif) [antigen F],lack of balance,12,Significant weight loss,significantly higher,"grade of plaque formation (C57BL/6 mice [4]; male mice): 7 (18-21); induction of MS in males (C57BL/6 mice [4]; males): major inducer of MS in males; muscle weakness in male mice (C57BL/6 mice [3]; male mice, fall from inverted cage and ring): most pronounced muscle weakness"
